Test: mn = molality of the nth substance listed, in mol/kg
Conditions: 350 kPa, Liquid; for apparent molar heat capacity: Extra sensitive DSC

OC[C@@H](O)[C@H](O)[C@@H](O)CO [xylitol] + O
Conditions	apparent molar heat capacity [J/K/mol]	mass density [kg/m3]
318.15 K, m1 = 1.001	–	1034.54
318.15 K, m1 = 1.498	–	1053.25
318.15 K, m1 = 1.997	–	1070.4
318.15 K, m1 = 2.701	–	1092.04
323.15 K, m1 = 0.0499	368.1	–
323.15 K, m1 = 0.1	376.3	–
323.15 K, m1 = 0.4001	378.3	–
323.15 K, m1 = 0.7496	379.1	–
323.15 K, m1 = 1.001	379.8	–
323.15 K, m1 = 1.498	380.2	–
323.15 K, m1 = 1.997	377	–
323.15 K, m1 = 2.701	381.9	–
328.15 K, m1 = 0.0499	372.9	988.29
328.15 K, m1 = 0.1	381.3	990.59
328.15 K, m1 = 0.4001	383.2	1004.39
328.15 K, m1 = 0.7496	383.8	1019.46
328.15 K, m1 = 1.001	384.5	1029.53
328.15 K, m1 = 1.498	384.7	1048.03
328.15 K, m1 = 1.997	381.6	1064.94
328.15 K, m1 = 2.701	386.3	1086.4
333.15 K, m1 = 0.0499	377.6	–
333.15 K, m1 = 0.1	385.7	–
333.15 K, m1 = 0.4001	387.6	–
333.15 K, m1 = 0.7496	388.2	–
333.15 K, m1 = 1.001	388.8	–
333.15 K, m1 = 1.498	389	–
333.15 K, m1 = 1.997	385.9	–
333.15 K, m1 = 2.701	390.4	–
338.15 K, m1 = 0.0499	382	983.12
338.15 K, m1 = 0.1	389.8	985.45
338.15 K, m1 = 0.4001	391.8	999.12
338.15 K, m1 = 0.7496	392.3	1014.03
338.15 K, m1 = 1.001	392.9	1023.97
338.15 K, m1 = 1.498	392.9	1042.32
338.15 K, m1 = 1.997	389.9	1059.03
338.15 K, m1 = 2.701	394.2	1080.39
343.15 K, m1 = 0.0499	385	–
343.15 K, m1 = 0.1	393.6	–
343.15 K, m1 = 0.4001	395.5	–
343.15 K, m1 = 0.7496	395.9	–
343.15 K, m1 = 1.001	396.5	–
343.15 K, m1 = 1.498	396.5	–
343.15 K, m1 = 1.997	393.5	–
343.15 K, m1 = 2.701	397.7	–
348.15 K, m1 = 0.0499	389	977.37
348.15 K, m1 = 0.1	396.9	979.76
348.15 K, m1 = 0.4001	398.9	993.29
348.15 K, m1 = 0.7496	399.3	1008.12
348.15 K, m1 = 1.001	399.9	1017.97
348.15 K, m1 = 1.498	399.9	1036.22
348.15 K, m1 = 1.997	397	1052.82
348.15 K, m1 = 2.701	400.9	1074.02
353.15 K, m1 = 0.0499	392	–
353.15 K, m1 = 0.1	400	–
353.15 K, m1 = 0.4001	401.9	–
353.15 K, m1 = 0.7496	402.3	–
353.15 K, m1 = 1.001	402.9	–
353.15 K, m1 = 1.498	402.9	–
353.15 K, m1 = 1.997	400.2	–
353.15 K, m1 = 2.701	403.9	–
358.15 K, m1 = 0.0499	394	971.43
358.15 K, m1 = 0.1	402.5	973.65
358.15 K, m1 = 0.4001	404.6	986.64
358.15 K, m1 = 0.7496	404.9	1001.31
358.15 K, m1 = 1.001	405.5	1011.25
358.15 K, m1 = 1.498	405.5	1029.33
358.15 K, m1 = 1.997	403.2	1045.42
358.15 K, m1 = 2.701	406.4	1066.46
363.15 K, m1 = 0.0499	396	–
363.15 K, m1 = 0.1	404	–
363.15 K, m1 = 0.4001	405.9	–
363.15 K, m1 = 0.7496	406.2	–
363.15 K, m1 = 1.001	406.8	–
363.15 K, m1 = 1.498	406.7	–
363.15 K, m1 = 1.997	405.9	–
363.15 K, m1 = 2.701	407.6	–
368.15 K, m1 = 0.0499	–	964.45
368.15 K, m1 = 0.1	–	966.77
368.15 K, m1 = 0.4001	–	980.22
368.15 K, m1 = 0.7496	–	994.89
368.15 K, m1 = 1.001	–	1004.67
368.15 K, m1 = 1.498	–	1022.74
368.15 K, m1 = 1.997	–	1039.27
368.15 K, m1 = 2.701	–	1060.25

From the NIST ThermoML archive (doi:10.1016/j.jct.2006.08.009)
